Here are results for 33 compounds from patent publication US20050197338A1, “Substituted pyrazole urea compounds for the treatment of inflammation” (priority 2003, published 2005).

The experiment has as its target T1, human IKK-2 (rhIKK-2 homodimer) (Homo sapiens, UniProt O14920).
T1 construct: FLAG (DYKDDDDKD) (C); made in house; host or cells: insect cells (baculovirus, pFastBac)
T1 sequence (O14920 1-756): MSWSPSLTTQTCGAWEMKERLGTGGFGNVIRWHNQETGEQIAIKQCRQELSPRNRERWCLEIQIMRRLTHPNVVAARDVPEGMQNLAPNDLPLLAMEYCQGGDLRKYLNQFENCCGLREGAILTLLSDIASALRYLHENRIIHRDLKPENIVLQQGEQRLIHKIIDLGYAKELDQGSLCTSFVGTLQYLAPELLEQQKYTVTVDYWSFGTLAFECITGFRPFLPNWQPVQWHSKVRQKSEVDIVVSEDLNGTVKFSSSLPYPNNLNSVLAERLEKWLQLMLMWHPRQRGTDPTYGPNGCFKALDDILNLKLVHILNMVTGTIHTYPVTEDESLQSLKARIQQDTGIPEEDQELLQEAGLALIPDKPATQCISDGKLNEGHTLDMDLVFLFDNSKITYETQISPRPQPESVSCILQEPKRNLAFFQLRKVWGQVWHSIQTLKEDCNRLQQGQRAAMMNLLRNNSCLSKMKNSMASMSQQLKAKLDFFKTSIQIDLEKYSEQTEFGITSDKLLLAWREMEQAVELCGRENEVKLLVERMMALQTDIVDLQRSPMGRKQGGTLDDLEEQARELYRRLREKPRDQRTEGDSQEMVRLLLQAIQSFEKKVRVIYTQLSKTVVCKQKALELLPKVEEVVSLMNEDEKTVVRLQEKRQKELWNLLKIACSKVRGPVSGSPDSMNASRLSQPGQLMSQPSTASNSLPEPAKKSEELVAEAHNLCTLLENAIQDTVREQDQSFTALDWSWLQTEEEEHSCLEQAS
As to the kind of experiment: IKK-2 Resin Enzyme Assay (Human IKK-2 Enzyme Assay). Type of experiment: biochemical. Particulars: human IKK-2, resin enzyme assay; read-out: IC50 (μM) hIKK-2. Put shortly:
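C-terminally FLAG-tagged human IKK-2 homodimer, baculovirus-expressed in insect cells and anti-FLAG purified. Reaction mix: 5 μM biotinylated IκBα peptide (Ser32/Ser36 region), 1 μM ATP with [γ-33P]ATP, 2 mM MgCl2, 2 mM MnCl2, 10 mM NaF, 1 mM DTT, 25 mM HEPES pH 7.6. Incubated 30 min at 25 °C; IC50 derived.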

The term IC50 denotes the concentration at which inhibition is half-maximal. `NC(=O)Nc1cn(-c2ccc3c(c2)OCO3)nc1C(N)=O` [Example 213, 4-[(aminocarbonyl)amino]-1-(1,3-benzodioxol-5-yl)-1H-pyrazole-3-carboxamide]: the IC50 stood at 3.91 µM.

With `CCOc1ccc(-c2cccc(-n3cc(NC(N)=O)c(C(N)=O)n3)c2)cc1` [Example 355, 4-[(aminocarbonyl)amino]-1-(4′-ethoxy-1,1′-biphenyl-3-yl)-1H-pyrazole-3-carboxamide], the IC50 was 6.15 µM. As for `NC(=O)Nc1cn(-c2cc(Cl)ccc2F)nc1C(N)=O` [Example 246, 1-(5-chloro-2-fluoro-phenyl)-4-ureido-1H-pyrazole-3-carboxylic acid amide], the IC50 was found to be 3.3 µM.

With `N#CCc1cccc(-c2ccc(-n3cc(NC(N)=O)c(C(N)=O)n3)cc2)c1` [Example 27, 4-[(aminocarbonyl)amino]-1-[3′-(cyanomethyl)-1,1′-biphenyl-4-yl]-1H-pyrazole-3-carboxamide], the IC50 was 1.36 µM.

`N#CCOc1ccccc1-c1ccc(-n2cc(NC(N)=O)c(C(N)=O)n2)c(F)c1` [Example 250, 4-[(aminocarbonyl)amino]-1-[2′-(cyanomethoxy)-3-fluoro-1,1′-biphenyl-4-yl]-1H-pyrazole-3-carboxamide]: the IC50 was 0.279 µM. The same measure for `NCc1cccc(-c2ccc(-n3cc(NC(N)=O)c(C(N)=O)n3)cc2)c1` [Example 28, 4-[(aminocarbonyl)amino]-1-[3′-(aminomethyl)-1,1′-biphenyl-4-yl]-1H-pyrazole-3-carboxamide]: 2.79 µM. `NC(=O)Nc1cn(-c2ccc(-c3ccc(C(=O)O)cc3)cc2)nc1C(N)=O` [Example 142, 4′-{3-(aminocarbonyl)-4-[(aminocarbonyl)amino]-1H-pyrazol-1-yl}-1,1′-biphenyl-4-carboxylic acid]: the IC50 amounted to 0.17 µM. In the case of `COc1ccccc1CNC(=O)c1ccc(-c2ccc(-n3cc(NC(N)=O)c(C(N)=O)n3)cc2)cc1F` [Example 154, 4-[(aminocarbonyl)amino]-1-(3′-fluoro-4′-{[(2-methoxybenzyl)amino]carbonyl}-1,1′-biphenyl-4-yl)-1H-pyrazole-3-carboxamide], the IC50 was 0.26 µM. Turning to `COc1cccc(-c2cccc(-n3cc(NC(N)=O)c(C(N)=O)n3)c2)c1` [Example 343, 4-[(aminocarbonyl)amino]-1-(3′-methoxy-1,1′-biphenyl-3-yl)-1H-pyrazole-3-carboxamide], the IC50 came out at 5.18 µM. As to `N#CCOc1cccc(-c2ccc(-n3cc(NC(N)=O)c(C(N)=O)n3)cc2C(F)(F)F)c1` [Example 237, 4-[(aminocarbonyl)amino]-1-[3′-(cyanomethoxy)-2-(trifluoromethyl)-1,1′-biphenyl-4-yl]-1H-pyrazole-3-carboxamide], the IC50 turned out to be 3.9 µM. On to `NC(=O)CCc1cccc(-c2ccc(-n3cc(NC(N)=O)c(C(N)=O)n3)cc2)c1` [Example 338, 4-[(aminocarbonyl)amino]-1-[3′-(3-amino-3-oxopropyl)-1,1′-biphenyl-4-yl]-1H-pyrazole-3-carboxamide], for which the IC50 came out at 0.62 µM. Regarding `NC(=O)Nc1cn(-c2ccc(-c3ccc(C(=O)Nc4ccccn4)cc3)cc2)nc1C(N)=O` [Example 33, 4-[(aminocarbonyl)amino]-1-{4′-[(pyridin-2-ylamino)carbonyl]-1,1′-biphenyl-4-yl}-1H-pyrazole-3-carboxamide], the IC50 was 0.89 µM. Regarding `NC(=O)Nc1cn(-c2ccc(-c3cccc(OCc4ncco4)c3)cc2)nc1C(N)=O` [Example 254, 4-[(aminocarbonyl)amino]-1-[3′-(1,3-oxazol-2-ylmethoxy)-1,1′-biphenyl-4-yl]-1H-pyrazole-3-carboxamide], the IC50 worked out at 0.352 µM. As for `CCCNC(=O)c1ccc(-c2cccc(-n3cc(NC(N)=O)c(C(N)=O)n3)c2)cc1` [Example 75, 4-[(aminocarbonyl)amino]-1-{4′-[(propylamino)carbonyl]-1,1′-biphenyl-3-yl}-1H-pyrazole-3-carboxamide], the IC50 is 0.48 µM. As to `NC(=O)Nc1cn(-c2ccc(-c3ccc(C(=O)O)c(F)c3)cc2F)nc1C(N)=O` [Example 248, 4′-{3-(aminocarbonyl)-4-[(aminocarbonyl)amino]-1H-pyrazol-1-yl}-3,3′-difluoro-1,1′-biphenyl-4-carboxylic acid], the IC50 is 0.386 µM. The value for `CCOc1cc(-n2cc(NC(N)=O)c(C(N)=O)n2)ccc1-c1ccc(O)cc1` [Example 274, 4-[(aminocarbonyl)amino]-1-(2-ethoxy-4′-hydroxy-1,1′-biphenyl-4-yl)-1H-pyrazole-3-carboxamide] was > 20 µM. With `NC(=O)Nc1nn(-c2ccc(-c3ccc(Cl)c(Cl)c3)cc2)cc1C(N)=O` [Example 136], the IC50 was > 20 µM. With `CCc1cc(Br)ccc1-n1cc(NC(N)=O)c(C(N)=O)n1` [Example 281, 4-[(aminocarbonyl)amino]-1-(4-bromo-2-ethylphenyl)-1H-pyrazole-3-carboxamide], the IC50 came to 10.6 µM. As to `NC(=O)Nc1cn(-c2ccc(Sc3ccccc3F)cc2F)nc1C(N)=O` [Example 211, 1-(1-(4-(2-fluorophenylthio)-2-fluorophenyl)-3-carbamoyl-1H-pyrazol-4-yl)urea], the IC50 is 10.5 µM.

As for `CN(C)c1ccc(-c2cccc(-n3cc(NC(N)=O)c(C(N)=O)n3)c2)cc1` [Example 61], the IC50 amounted to 6.21 µM. In the case of `N#CCCNC(=O)c1ccc(-c2cccc(-n3cc(NC(N)=O)c(C(N)=O)n3)c2)cc1` [Example 84, 4-[(aminocarbonyl)amino]-1-(4′-{[(2-cyanoethyl)amino]carbonyl}-1,1′-biphenyl-3-yl)-1H-pyrazole-3-carboxamide], the IC50 turned out to be 2.06 µM. Turning to `N#CCOc1cccc(-c2ccc(-n3cc(NC(N)=O)c(C(N)=O)n3)cc2)c1` [Example 166, 4-[(aminocarbonyl)amino]-1-[3′-(cyanomethoxy)-1,1′-biphenyl-4-yl]-1H-pyrazole-3-carboxamide], the IC50 came out at 0.38 µM. The same measure for `NC(=O)Nc1cn(-c2cccc(-c3cccc(C(=O)NC4CC4)c3)c2)nc1C(N)=O` [Example 81]: 1.65 µM. For the compound `NC(=O)Nc1cn(-c2cccc(-c3ccc(-c4ccccc4)cc3)c2)nc1C(N)=O` [Example 373, 4-[(aminocarbonyl)amino]-1-(1,1′:4′,1″-terphenyl-3-yl)-1H-pyrazole-3-carboxamide], the IC50 is > 20 µM.

`NC(=O)Nc1nn(-c2ccc(-c3ccc(C4CCCCC4)cc3)cc2)cc1C(N)=O` [Example 140]: the IC50 was > 20 µM. Take `NC(=O)Nc1cn(-c2ccc(-c3ccc(C(=O)NCc4ccccc4)c(F)c3)cc2)nc1C(N)=O` [Example 151, 4-[(aminocarbonyl)amino]-1-{4′-[(benzylamino)carbonyl]-3′-fluoro-1,1′-biphenyl-4-yl}-1H-pyrazole-3-carboxamide]: the IC50 amounted to 0.31 µM. For `NC(=O)Nc1cn(-c2cccc(-c3cccc(C(=O)O)c3)c2)nc1C(N)=O` [Example 73, 3′-{3-(aminocarbonyl)-4-[(aminocarbonyl)amino]-1H-pyrazol-1-yl}-1,1′-biphenyl-3-carboxylic acid], the concentration for half-maximal inhibition (IC50) was 8.03 µM. For the compound `NC(=O)Nc1cn(-c2ccc(Sc3ccc(Cl)cc3)cc2)nc1C(N)=O` [Example 290, 1-(1-(4-(4-chlorophenylthio)phenyl)-3-carbamoyl-1H-pyrazol-4-yl)urea], the IC50 amounted to 4.56 µM. The same measure for `COc1ccc(-c2cccc(-n3cc(NC(N)=O)c(C(N)=O)n3)c2)cc1OC` [Example 56, 4-[(aminocarbonyl)amino]-1-(3,4′-dimethoxy-1,1′-biphenyl-3-yl)-1H-pyrazole-3-carboxamide]: 2.16 µM; for `CC(C)c1cccc(-c2cccc(-n3cc(NC(N)=O)c(C(N)=O)n3)c2)c1` [Example 352, 4-[(aminocarbonyl)amino]-1-(3′-isopropyl-1,1′-biphenyl-3-yl)-1H-pyrazole-3-carboxamide]: > 20 µM.

As for `NC(=O)Nc1cn(-c2ccc(S(=O)(=O)c3ccc(F)cc3)cc2Cl)nc1C(N)=O` [Example 377, 1-(1-(4-(4-fluorophenylsulfonyl)-2-chlorophenyl)-3-carbamoyl-1H-pyrazol-4-yl)urea], the IC50 was found to be 0.113 µM. In the case of `CNC(=O)c1ccc(-c2cccc(-n3cc(NC(N)=O)c(C(N)=O)n3)c2)cc1` [Example 74, 4-[(aminocarbonyl)amino]-1-{4′-[(methylamino)carbonyl]-1,1′-biphenyl-3-yl}-1H-pyrazole-3-carboxamide], the IC50 was found to be 0.94 µM. The value for `NC(=O)Nc1cn(-c2ccc(-c3ccc(C(=O)NC4CCCc5ccccc54)c(F)c3)cc2)nc1C(N)=O` (stereo not drawn) [Example 159, 4-[(aminocarbonyl)amino]-1-{3′-fluoro-4′-[(1,2,3,4-tetrahydronaphthalen-1-ylamino)carbonyl]-1,1′-biphenyl-4-yl}-1H-pyrazole-3-carboxamide] was 5.97 µM.
